Each structure is given as a SMILES string.

A short description of this data set: gradient 5% acetonitrile 3 min, to 50% in 2 min, to 85% in 15 min, held 3 min, 100 µL/min. Particulars: column: Zorbax Extend-C18 2.1 x 50 mm; eluents: water / acetonitrile, 0.1% formic acid. An outline of the steps:
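Retention times come from adduct peaks that were picked computationally and then checked by hand. The standards, pure and pooled in mixtures of ~100 molecules, were run on a Zorbax Extend-C18 column (2.1 × 50 mm, 1.8 μm) at 100 μL/min with water and acetonitrile, each with 0.1% formic acid. Detection was by quadrupole time-of-flight mass spectrometry in positive and negative ionization mode, with a dead volume of 40 μL and a dwell volume of 900 μL.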
For the compound `CCc1nc(-c2ccc(S(=O)(=O)N3CCC(C(=O)NC4CCCCC4)CC3)cc2)no1`, the RP-LC retention time stood at 954 s.
In the case of `CCSc1nnc(-c2nn(C)c3c2CN(C(=O)c2ccc(F)c(F)c2)CC3)n1C`, the RP-LC retention time is 763 s.
In the case of `O=C(NCC1CCCCC1)C1(CCO)CCN(c2ncccn2)C1` (stereo unspecified), the RP-LC retention time is 629 s.
Compound `Cc1c(Cl)cccc1NC(=O)N1CC(n2cnnc2-c2ccccc2)C1` yielded an RP-LC retention time of 720 s.
Compound `Cc1cc(NC(=O)CSc2cn(Cc3cccc(F)c3)c3ccccc23)no1` had an RP-LC retention time of 951 s.
Take `C[C@@H](C(=O)NCC1(CC(=O)O)CCCCC1)n1nnc2ccccc2c1=O`: the RP-LC retention time was 748 s.
With `COc1cc2c(cc1CNC(=O)Cn1cc(C(C)=O)c3ccccc31)OCCCO2` the figure was 771 s.
In the case of `O=C(NCC1(c2cccs2)CCOCC1)c1ccsc1` it was 706 s.
Turning to `CCCCS(=O)(=O)c1cc2c(cc1NC(=O)Cc1ccc(C)cc1)n(C)c(=O)n2C`, the RP-LC retention time came to 931 s.
Take `CCc1c(C(=O)O)nnn1-c1ccc(C)c(C)c1`: the RP-LC retention time was found to be 783 s.
With `COCCCNC(=O)C1c2cc(OC)c(OC)cc2C(=O)N(C)C1c1ccc(SC)cc1` (stereo unspecified) the figure was 607 s; with `CCc1ccc(NC(=O)Nc2cccn3ncnc23)cc1`, 872 s; with `Cc1sc(-c2cc(C(F)(F)F)on2)cc1S(=O)(=O)NCCc1cccs1`, 1140 s.
As to `Cc1cc2c(=O)n(CC(=O)Nc3cccc(Cl)c3)ccc2s1`, the RP-LC retention time worked out at 832 s.
In the case of `COc1ccc(OC)c(NC(=O)N2CCC3(CC2)N=C(c2cccc(F)c2)C(=O)N3)c1`, the RP-LC retention time amounted to 856 s.
Turning to `COc1c(C)cc(S(=O)(=O)NC2CC(C)(C)NC(C)(C)C2)cc1C`, the RP-LC retention time was 575 s.
As to `Cc1nc(CN2CC(c3nc(-c4cccs4)no3)C2)cs1`, the RP-LC retention time was 568 s.
Compound `O=C(Nc1ccc2c(c1)OCO2)C1CCN(C(=O)c2ccccc2F)CC1` came in with an RP-LC retention time of 741 s.
`C=CCn1c(=O)c2ccccc2n(Cc2nc(-c3ccc(C)c(C)c3)no2)c1=O` returned an RP-LC retention time of 1140 s.
In the case of `CCN1CCCC1CNC(=O)c1nc(-c2ccc3c(c2)OCC(=O)N3C)no1` (stereo unspecified), the RP-LC retention time amounted to 617 s.
With `CC(C)c1ccc(NC(=O)C2CCN(c3cncnc3N3CCOCC3)CC2)cc1` the figure was 714 s; with `CCOC(=O)c1noc2ncnc(N3CCN(c4ccccc4)CC3)c12`, 968 s; with `Fc1ccccc1-c1nnc(SCc2cccc(C(F)(F)F)c2)o1`, 1070 s.
The compound `O=C(NCc1ccc(N2CCOCC2)nc1)c1ccccc1Br` registered an RP-LC retention time of 581 s.
In turn, `CCCn1cc(CCNC(=O)Nc2cccc(Cl)c2F)c2cccnc21` gave an RP-LC retention time of 900 s.
In turn, `O=S(=O)(c1ccc2c(c1)CCCC2)N1CCCC1c1nc(-c2ccccc2)no1` (stereo unspecified) gave an RP-LC retention time of 1270 s.
`CCOC(=O)c1c(C)oc2nc(C)nc(Nc3ccc4c(c3)OCCO4)c12` showed an RP-LC retention time of 1200 s.
`Cc1sc(NC(=O)CCc2ccccc2)nc1-c1ccc2c(c1)N(C)C(=O)CO2` displayed an RP-LC retention time of 1010 s.
As to `O=C(NC1(c2nc(-c3cccnc3)no2)CCCCC1)c1n[nH]c2c1CCCC2`, the RP-LC retention time was 854 s.
Turning to `Cn1c(=O)c2nc(S(=O)(=O)CCC(=O)Nc3cccc(Br)c3)n(C)c2n(C)c1=O`, the RP-LC retention time amounted to 750 s.
In the case of `CCOc1cc(S(=O)(=O)NCc2ccccn2)ccc1Br`, the RP-LC retention time is 666 s.
On to `CN(c1nccn2c(=O)n(CC(=O)Nc3cc(F)ccc3F)nc12)C1CCCCC1`, for which the RP-LC retention time turned out to be 786 s.
Turning to `COc1ccccc1CNC(=O)c1ccc2c(c1)nc1n2CCN(Cc2ccccc2)C1=O`, the RP-LC retention time came to 789 s.
The compound `CCc1cccc(NC(=O)Cn2c(=O)nc(N3CCCCC3)c3ccccc32)c1` gave an RP-LC retention time of 754 s.
Consider `Cc1cc(N2CCN(C)CC2)nc2ccc(NC(=O)Nc3ccc(F)cc3F)cc12`, for which the RP-LC retention time was 594 s.
The compound `Cc1ccc(-c2csc(NC(=O)c3ccc4c(c3)OCO4)n2)cc1C` showed an RP-LC retention time of 1100 s.
In the case of `CCCn1cc(C(=O)NCc2ccncc2)c2cccnc21`, the RP-LC retention time was determined as 572 s.
Turning to `CCn1cnnc1C1CCCCN1S(=O)(=O)c1cccs1` (stereo unspecified), the RP-LC retention time came out at 694 s.
With `CCC(C)C(=O)N1CCN(c2ncccc2-c2nnc(C3CC3)o2)CC1` (stereo unspecified) the figure was 733 s; with `CCOC(=O)CC1(NC(=O)N2CCCn3nc(-c4cccnc4)cc3C2)CCCCC1`, 643 s.
Compound `O=[N+]([O-])c1cccc(S(=O)(=O)Nc2ccc(O)c(-c3c(O)ccc4ccccc34)c2)c1` showed an RP-LC retention time of 801 s.
The compound `Cc1ccc(NC(=O)Cn2nc3c(N4CCSCC4)nccn3c2=O)cc1C` registered an RP-LC retention time of 839 s.
`Cc1nc(N2CCN(c3ccccn3)CC2)nc2c1C(=O)CC(c1ccc(F)cc1)C2` (stereo unspecified) yielded an RP-LC retention time of 755 s.
With `CCNS(=O)(=O)c1cccnc1Nc1ccc(C)c(Cl)c1` the figure was 1110 s; with `Cc1c(C(=O)N2CCSCC2)cnn1-c1ncccc1-c1nc(C2CC2)no1`, 740 s.
In turn, `Cc1ccc2oc(-c3noc(C(=O)NCc4ccc(C)o4)n3)c(C)c2c1` came in with an RP-LC retention time of 1080 s.
For `Cc1ccc(Nc2c(-c3cccc(Cl)c3)nc3ccc(Cl)cn23)cc1`, the RP-LC retention time was 1080 s.
In turn, `O=C(Cn1cnc2c(sc3nc(-c4ccccc4)ccc32)c1=O)Nc1ccccc1Cl` yielded an RP-LC retention time of 1020 s.
As for `Cc1ccc(CNC(=O)N2CCC3(C2)C(=O)N(C)c2ccccc23)cc1` (stereo unspecified), the RP-LC retention time turned out to be 797 s.
As to `Cc1ccc(C)c(NC(=O)CSc2nncn2C)c1`, the RP-LC retention time was determined as 618 s.
`COc1ccc(-c2ccnn2-c2ccc(SCC(=O)NC(C)C)nn2)cc1` displayed an RP-LC retention time of 932 s.
The compound `CCOC(=O)CCC(=O)N(Cc1ccsc1)CC(F)(F)F` yielded an RP-LC retention time of 839 s.
In the case of `O=C1COc2cc(S(=O)(=O)N3CCCC3C(=O)NCc3ccc(F)cc3)c(Cl)cc2N1` (stereo unspecified) it was 745 s; in that of `O=C(CN1C(=O)C2CCCCN2c2ccc(S(=O)(=O)N3CCCC3)cc21)NC1CCCCCC1` (stereo unspecified), 1000 s.
`Cc1ccc(C2NC(=O)N(C)C3=C2C(=O)N(C(CC(C)C)C(=O)N2CCOCC2)C3)c(C)c1` (stereo unspecified): the RP-LC retention time was 708 s.
Compound `COCCNC(=O)C1CCCN(c2nccnc2Sc2ccccc2)C1` (stereo unspecified) returned an RP-LC retention time of 810 s.
`Cc1ccc(-c2coc(-c3ccc(NC(=O)c4ccc(Br)o4)cc3)n2)cc1` yielded an RP-LC retention time of 1230 s.
As to `CCOc1ccc(C2=NC3(CCN(C)CC3)NC(c3ccccc3O)C2)cc1` (stereo unspecified), the RP-LC retention time worked out at 604 s.
Consider `Cc1nn(-c2ccccc2)c(C)c1CCC(=O)NCCN(C)C`, for which the RP-LC retention time is 590 s.
Regarding `COCCN1C(=O)c2ccccc2C(C(=O)Nc2cccc(C)n2)C12CCCCC2` (stereo unspecified), the RP-LC retention time stood at 828 s.
The compound `CCCCOc1ccc(NC(=O)Nc2ccc3c(c2)CN(C(=O)CC)CC3)cc1` gave an RP-LC retention time of 861 s.
Turning to `CC(C)c1nc(-n2cccc2)sc1C(=O)NCCCN1CCCCC1`, the RP-LC retention time stood at 719 s.
`CCNc1cc(N2CCC(CCC(=O)NCc3ccccc3F)CC2)ncn1` came in with an RP-LC retention time of 646 s.
In turn, `Cc1ccc(-c2nc3nc(C)cc(N4CCN(c5ccccn5)CC4)n3n2)cc1` returned an RP-LC retention time of 629 s.
In turn, `COc1cccc(-c2noc(Cc3nnc(-c4ccc(Cl)cc4)o3)n2)c1OC` had an RP-LC retention time of 973 s.
As to `NC(=O)c1ccccc1NC(=O)Cc1cn(Cc2ccccc2)c2ccccc12`, the RP-LC retention time is 853 s.
With `CCOC(=O)c1ccc(NC(=O)Cn2c(C)cc(=O)c3cc(Br)ccc32)cc1` the figure was 623 s; with `CCOc1nccnc1NC1CCN(C(=O)c2ccn(CC)n2)CC1`, 669 s; with `CC(=O)Nc1ccc(C(=O)NCCNC(=O)Nc2cccs2)cc1`, 600 s.
`COc1ccc(CCNC(=O)C2CCN(S(=O)(=O)N(CC(C)C)CC(C)C)CC2)cc1OC`: the RP-LC retention time was found to be 992 s.
With `O=C(Cn1nc2nc(Nc3ccc(F)cc3)ccn2c1=O)N1CCOCC1` the figure was 631 s; with `COc1ccccc1CNC(=O)Cn1nc2cc(-c3ccccn3)nc(C)n2c1=O`, 629 s.
`CCc1ccc(NC(=O)CSc2nc(N3CCCCC3)nc3ccccc23)cc1` registered an RP-LC retention time of 809 s.
Take `Cc1ccccc1-c1nnc(CSc2nnc(NC(=O)C3CC3)s2)o1`: the RP-LC retention time is 822 s.
Take `CC(C)NC(=O)c1cccnc1N1CCSCC1`: the RP-LC retention time came to 662 s.
As for `CCc1nc2cccnc2n1-c1ccc(C(=O)N(C)C)cc1`, the RP-LC retention time came out at 589 s.
In turn, `CCOc1ccccc1C1C(C(=O)OC)=C(C)NC2=C1C(=O)c1ccccc12` (stereo unspecified) registered an RP-LC retention time of 887 s.
With `CCC1CCCCN1CCCNC(=O)c1sc2nc3n(c(=O)c2c1C)CCC3` (stereo unspecified) the figure was 598 s; with `Nc1o[nH]c(=O)c1C1CCCCC1`, 680 s.
In turn, `CCOc1ccc(NC(=O)c2cnc3c(c2)c(=O)n(C)c(=O)n3-c2ccc(OC)cc2)cc1` came in with an RP-LC retention time of 901 s.
With `CC(C)n1c(N2CCN(C(=O)c3cc4ccccc4[nH]3)CC2)cc(=O)n(C(C)C)c1=O` the figure was 915 s.

(Values after the METLIN SMRT retention time set (Domingo-Almenara et al. 2019).)
